Assay results reported in patent US20030166161A1, “Gene that imparts selective proliferative activity” (priority 1997, published 2003).

Tests used:
[1] = tested on: BaF/GCRTmR clones; assay: XTT proliferation assay of BaF/GCRTmR clones; assay type: cell-based; conditions: for growth of GCRTmR-transduced Ba/F3 cells with stimulator: IL-3, 10^−9 M G-CSF, 10^−7 M Tm or 10^−7 M E2, FIG. 17B-D
Protocol: (§1) Cultures containing IL-3 or G-CSF were split every three to four days, while Tm-containing cultures were diluted every four days. Cell proliferation assay was performed periodically in 96-well microtiter plates by the 2,3-bis (2-methoxy-4-nitro-5-sulfophenyl)-5-[(phenylamino)-carbonyl]-2H-tetrazolium hydroxide (XTT) method using Cell Proliferation Kit II (Boehringer Mannheim, Mannheim, Germany) [Scudiero D A, et al., Cancer Res., (1988) 48: 4827-4833]. For hormone dose-response analysis, transduced Ba/F3 cells were stimulated by various concentrations of Tm or E2, and XTT assay was performed on day zero and day four. The final concentration of ethanol used to dilute Tm and E2 was 0.1% in all the culture conditions.

[2] = tested on: BaF/ΔGCRTmR clones; assay: XTT proliferation assay of BaF/ΔGCRTmR clones; assay type: cell-based; conditions: 10^−9 M G-CSF or 10^−7 M Tm; FIG. 17E-G
Protocol: as §1

[3] = tested on: Parental Ba/F3 cells; assay: XTT proliferation assay of parental Ba/F3 cells; assay type: cell-based; conditions: IL-3, 10^−9 M G-CSF, 10^−7 M Tm, 10^−7 M E2; FIG. 17A
Protocol: as §1

[4] = tested on: parental and transduced Ba/F3 cultures; assay: Toxicity of E2 or Tm in Ba/F3 cultures with IL-3; conditions: concentrations up to 10^−6 M
Protocol: as §1

[5] = tested on: Ba/F3 cells into which pCMX-GCRER was introduced; assay: XTT proliferation assay, Ba/F3 cells with pCMX-GCRER; assay type: cell-based; conditions: for proliferation of IL-3-independent cells by stimulation: stimulation with G-CSF or estradiol, FIG. 3
Excerpt: The Ba/F3 cells into which “pCMX-GCRER” was introduced were examined.

[6] = tested on: Ba/F3 cells into which pCMX-GCRΔ(5-195)/ER was introduced; assay: XTT proliferation assay, Ba/F3 cells with pCMX-GCRΔ(5-195)/ER; assay type: cell-based; conditions: G-CSF or estradiol stimulation, FIG. 5
Excerpt: The Ba/F3 cells into which “pCMX-GCRΔ(5-195)/ER” was introduced were then examined.

[7] = tested on: Ba/F3 cells into which pCMX-GRΔ(5-195, 725-756)/ER was introduced; assay: XTT proliferation assay, Ba/F3 cells with pCMX-GCRΔ(5-195, 725-756)/ER; assay type: cell-based; conditions: estrogen or G-CSF stimulation
[8] = tested on: GCRER-expressing Ba/F3; conditions: Ito K, et al., Blood (1997), cited from earlier work
[9] = tested on: Ba/F3 cells; assay: MTS cell proliferation assay of Ba/F3 cells transduced with Mpl chimeric genes; assay type: cell-based
Protocol: BOSC23 cells were transfected with MSCV/ΔGCR-ER orMSCV/Mpl-ER or MSCV/ΔGCR-Mpl-ER or MSCV/ΔGCR-Mpl-TmR-IRES-EGFP using Transfection MBS Mammalian Transfection Kit (Stratagene) and the viral supernatants were harvested on day two post-transfection. Fibronectin-assisted transduction of IL3-dependentBa/F3 cells was carried out on 6-well plates precoated with CH296 fibronectin fragment (Retronectin; Takara Shuzo) according to a standard procedure. After retroviral infection, ΔGCR-Mpl-TmR-IRES-EGFP transduced Ba/F3 cells (BaF/ΔGCR-Mpl-TmR) were selected with EPICS Elite ESP Cell Sorter. GFP-positive cells were […] and were cloned by limiting dilution with 10^−7 M 4-hydroxytamoxifen (Tm).
Cell proliferation assay was periodically performed using CellTier 96 Aqueous One Solution Cell Proliferation Assay {3-(4,5-dimethylthiazol-2-yl)-5-(3-carboxymethoxyphenyl)-2-(4-sulfophenyl)-2H-tetrazolium (MTS); Promega, Madison, Wis.} essentially according to the manufacturer's instruction. In brief, 20 μl per well of MTS-labeling mixture was added. After the incubation at 37° C. for 2 hours, the spectrophotometeical absorbance was measured at the wave length of 490 nm and 650 nm.

[10] = XTT day four vs day zero, FIG. 19

Molecule	optimal concentration of Tm to stimulate BaF/GCRTmR [1]	response to 10 M Tm, clone 3 ([1]; BaF/GCRTmR clone 3, 10 M Tm as printed)	growth of GCRTmR-transduced Ba/F3 cells with stimulator [1]	Tm concentration at which all three clones grew well [1, 10]	time until cells stopped growing and died upon removal of Tm ([1]; long-term culture without IL-3, FIG. 18) [h]	time Tm alone could support the cells in long-term culture ([1]; without IL-3, FIG. 18)	growth of BaF/ΔGCRTmR clones with stimulator [2]	support of untransduced Ba/F3 by stimulator [3]	toxic effects [4]	estradiol concentrations at which cell proliferation was observed ([5]; estradiol varied between 10^−14 and 10^−7 M, FIG. 4)	proliferation of IL-3-independent cells by stimulation [5]	cell proliferation by stimulation [6]	cell proliferation by stimulation [7]	response to 10^−6 M E2, clone 3 ([1]; BaF/GCRTmR clone 3, 10^−6 M E2)	response to 10^−6 M E2, the other clones ([1]; BaF/GCRTmR clones 1 and 2, 10^−6 M E2)	E2 concentration up to which no growth was observed [1, 10]	E2 concentration inducing proliferation of GCRER-expressing Ba/F3 [8]	E2 dose optimal to support Ba/F3 cells expressing GCRER or ΔGCRER ([8]; previous study)	growth response to TPO in the absence of IL-3 ([9]; 100 ng/ml rhTPO)	growth response to estrogen (E2) in the absence of IL-3 ([9]; 10^−7M β-estradiol)
4-hydroxytamoxifen [Tm]	10^−7-10^−6 M	partially responded	grew continuously	10^−7-10^−6 M	≤ 24	at least 36 days	proliferated	did not support	neither reagent showed toxic effects											
C[C@]12CC[C@@H]3c4ccc(O)cc4CC[C@H]3[C@@H]1CC[C@@H]2O [estradiol, β-estradiol]			had no effect					did not support		10^−9 to 10^−7 M	proliferated	caused cell proliferation	cell proliferation was caused	limited response	inert	up to 10^−7 M	≥ 10^−10 M	10^−7 M		
G-CSF: cytokine (hematopoietic factor); human G-CSF provided by Chugai Pharmaceuticals (protein) TPLGPASSLPQSFLLKCLEQVRKIQGDGAALQEKLCATYKLCHPEELVLLGHSLGIPWAPLSSCPSQALQLAGCLSQLHSGLFLYQGLLQALEGISPELGPTLDTLQLDVADFATTIWQQMEELGMAPALQPTQGAMPAFASAFQRRAGGVLVASHLQSFLEVSYRVLRHLAQP			grew continuously				did not respond	did not support			proliferated	blocked	no response							
Mpl-ER: fusion protein between Mpl and ER (protein) QDVSLLASDSEPLKCFSRTFEDLTCFWDEEEAAPSGTYQLLYAYPREKPRACPLSSQSMPHFGTRYVCQFPDQEEVRLFFPLHLWVKNVFLNQTRTQRVLFVDSVGLPAPPSIIKAMGGSQPGELQISWEEPAPEISDFLRYELRYGPRDPKNSTGPTVIQLIATETCCPALQRPHSASALDQSPCAQPTMPWQDGPKQTSPSREASALTAEGGSCLISGLQPGNSYWLQLRSEPDGISLGGSWGSWSLPVTVDLPGDAVALGLQCFTLDLKNVTCQWQQQDHASSQGFFYHSRARCCPRDRYPIWENCEEEEKTNPGLQTPQFSRCHFKSRNDSIIHILVEVTTAPGTVHSYLGSPFWIHQAVRLPTPNLHWREISSGHLELEWQHPSSWAAQETCYQLRYTGEGHQDWKVLEPPLGARGGTLELRPRSRYRLQLRARLNGPTYQGPWSSWSDPTRVETATETAWISLVTALHLVLGLSAVLGLLLLRWQFPAHYRRLRHALWPSLPDLHRVLGQYLRDTAALSPPKATVSDTCEEVEPSLLEILPKSSERTPLPLCSSQAQMDYRRLQPSCLGTMPLSVCPPMAESGSCCTTHIANHSYLPLSYWQQPGTSGDMRAANLWPSPLVIKHTKKNSPALSLTADQMVSALLDAEPPLIYSEYDPSRPFSEASMMGLLTNLADRELVHMINWAKRVPGFGDLNLHDQVHLLECAWLEILMIGLVWRSMEHPGKLLFAPNLLLDRNQGKCVEGMVEIFDMLLATSSRFRMMNLQGEEFVCLKSIILLNSGVYTFLSSTLKSLEEKDHIHRVLDKINDTLIHLMAKAGLTLQQQHRRLAQLLLILSHIRHMSNKGMEHLYNMKCKNVVPLYDLLLEMLDAHRLHAPASRMGVPPEEPSQSQLTTTSSTSAHSLQTYYIPPEAEGFPNTI																			acquired the ability to proliferate	acquired the ability to proliferate
